Results: ChEMBL document CHEMBL3091325, “New aminopyrimidine derivatives as inhibitors of the TAM family” (Eur J Med Chem, 2013)
Active and inactive are the calls of the source. The calls are words filed in the database; no cut-off is given here.

Legend:
[1] = molecular target: T1, Tyrosine-protein kinase receptor TYRO3 (Homo sapiens) (UniProt Q06418); assay: Inhibition of recombinant human Tyro3 kinase domain using poly (Glu, Ala, Tyr) as substrate up to 50 uM after 1.5 hrs by ELISA
T1 sequence (whole entry): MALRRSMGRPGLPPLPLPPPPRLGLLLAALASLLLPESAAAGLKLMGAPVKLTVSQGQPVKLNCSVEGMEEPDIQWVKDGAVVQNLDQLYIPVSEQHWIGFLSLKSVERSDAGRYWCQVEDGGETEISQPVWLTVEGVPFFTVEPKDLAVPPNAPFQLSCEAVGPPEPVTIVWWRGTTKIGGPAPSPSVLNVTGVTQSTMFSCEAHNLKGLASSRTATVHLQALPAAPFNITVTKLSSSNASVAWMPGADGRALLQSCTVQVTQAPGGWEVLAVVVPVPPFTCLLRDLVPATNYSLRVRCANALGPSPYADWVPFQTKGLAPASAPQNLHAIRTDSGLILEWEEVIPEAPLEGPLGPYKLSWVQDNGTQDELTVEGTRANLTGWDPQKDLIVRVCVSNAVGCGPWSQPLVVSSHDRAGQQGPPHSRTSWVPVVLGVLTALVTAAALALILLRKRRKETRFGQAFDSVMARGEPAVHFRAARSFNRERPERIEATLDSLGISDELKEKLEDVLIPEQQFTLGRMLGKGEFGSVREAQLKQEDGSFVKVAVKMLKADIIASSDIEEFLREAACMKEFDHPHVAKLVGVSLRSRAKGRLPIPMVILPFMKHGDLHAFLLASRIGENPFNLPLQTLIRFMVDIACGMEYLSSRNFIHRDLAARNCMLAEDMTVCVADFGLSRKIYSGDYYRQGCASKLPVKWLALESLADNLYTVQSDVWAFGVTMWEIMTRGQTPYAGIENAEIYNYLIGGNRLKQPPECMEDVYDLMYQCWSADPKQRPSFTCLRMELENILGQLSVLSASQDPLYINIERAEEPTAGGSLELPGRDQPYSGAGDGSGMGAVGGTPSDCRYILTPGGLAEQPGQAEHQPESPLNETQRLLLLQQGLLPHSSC

[2] = molecular target: Tyrosine-protein kinase ABL1 (Homo sapiens) (UniProt P00519); assay: Inhibition of phosphorylated form of Abl1 (unknown origin) at 75 uM relative to control
Tyrosine-protein kinase ABL1 (Homo sapiens), sequence (P00519 whole entry, the tested form may be a part): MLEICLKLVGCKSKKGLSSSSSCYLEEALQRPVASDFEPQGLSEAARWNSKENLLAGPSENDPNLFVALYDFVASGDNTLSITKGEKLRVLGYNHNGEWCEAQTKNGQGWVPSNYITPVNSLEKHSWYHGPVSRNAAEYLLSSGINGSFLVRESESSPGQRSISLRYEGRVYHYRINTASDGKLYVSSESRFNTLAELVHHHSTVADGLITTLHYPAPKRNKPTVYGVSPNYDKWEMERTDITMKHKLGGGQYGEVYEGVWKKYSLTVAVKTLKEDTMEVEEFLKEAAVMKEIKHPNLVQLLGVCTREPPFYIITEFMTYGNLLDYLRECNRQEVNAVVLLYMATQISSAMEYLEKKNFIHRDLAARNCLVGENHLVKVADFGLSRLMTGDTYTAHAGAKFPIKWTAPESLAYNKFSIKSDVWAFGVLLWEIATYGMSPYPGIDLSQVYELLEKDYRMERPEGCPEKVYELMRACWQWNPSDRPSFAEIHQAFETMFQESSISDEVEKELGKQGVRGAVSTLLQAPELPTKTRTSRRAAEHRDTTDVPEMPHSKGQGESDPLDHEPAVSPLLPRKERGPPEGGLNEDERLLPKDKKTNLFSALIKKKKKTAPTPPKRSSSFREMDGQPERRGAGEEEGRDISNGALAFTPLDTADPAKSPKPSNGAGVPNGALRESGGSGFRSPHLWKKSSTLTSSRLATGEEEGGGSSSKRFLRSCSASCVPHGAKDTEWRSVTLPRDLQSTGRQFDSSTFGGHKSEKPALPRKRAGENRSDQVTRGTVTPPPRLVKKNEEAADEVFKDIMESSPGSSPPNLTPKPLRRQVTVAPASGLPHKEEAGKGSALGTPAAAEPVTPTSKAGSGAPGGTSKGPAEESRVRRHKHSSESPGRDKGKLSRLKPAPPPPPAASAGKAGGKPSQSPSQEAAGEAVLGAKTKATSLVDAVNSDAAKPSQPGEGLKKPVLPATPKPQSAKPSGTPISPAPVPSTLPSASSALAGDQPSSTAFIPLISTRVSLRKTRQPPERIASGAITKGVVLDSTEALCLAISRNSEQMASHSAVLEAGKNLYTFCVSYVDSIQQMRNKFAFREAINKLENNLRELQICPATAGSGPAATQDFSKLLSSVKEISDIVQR

[3] = molecular target: T1, Tyrosine-protein kinase receptor TYRO3 (Homo sapiens); assay: Inhibition of recombinant human Tyro3 kinase domain using poly (Glu, Ala, Tyr) as substrate at 1 uM after 1.5 hrs by ELISA relative to control
[4] = molecular target: Hepatocyte growth factor receptor (Homo sapiens) (UniProt P08581); assay: Inhibition of Met (unknown origin) at 0.5 uM relative to control
Hepatocyte growth factor receptor (Homo sapiens), sequence (P08581 whole entry, the tested form may be a part): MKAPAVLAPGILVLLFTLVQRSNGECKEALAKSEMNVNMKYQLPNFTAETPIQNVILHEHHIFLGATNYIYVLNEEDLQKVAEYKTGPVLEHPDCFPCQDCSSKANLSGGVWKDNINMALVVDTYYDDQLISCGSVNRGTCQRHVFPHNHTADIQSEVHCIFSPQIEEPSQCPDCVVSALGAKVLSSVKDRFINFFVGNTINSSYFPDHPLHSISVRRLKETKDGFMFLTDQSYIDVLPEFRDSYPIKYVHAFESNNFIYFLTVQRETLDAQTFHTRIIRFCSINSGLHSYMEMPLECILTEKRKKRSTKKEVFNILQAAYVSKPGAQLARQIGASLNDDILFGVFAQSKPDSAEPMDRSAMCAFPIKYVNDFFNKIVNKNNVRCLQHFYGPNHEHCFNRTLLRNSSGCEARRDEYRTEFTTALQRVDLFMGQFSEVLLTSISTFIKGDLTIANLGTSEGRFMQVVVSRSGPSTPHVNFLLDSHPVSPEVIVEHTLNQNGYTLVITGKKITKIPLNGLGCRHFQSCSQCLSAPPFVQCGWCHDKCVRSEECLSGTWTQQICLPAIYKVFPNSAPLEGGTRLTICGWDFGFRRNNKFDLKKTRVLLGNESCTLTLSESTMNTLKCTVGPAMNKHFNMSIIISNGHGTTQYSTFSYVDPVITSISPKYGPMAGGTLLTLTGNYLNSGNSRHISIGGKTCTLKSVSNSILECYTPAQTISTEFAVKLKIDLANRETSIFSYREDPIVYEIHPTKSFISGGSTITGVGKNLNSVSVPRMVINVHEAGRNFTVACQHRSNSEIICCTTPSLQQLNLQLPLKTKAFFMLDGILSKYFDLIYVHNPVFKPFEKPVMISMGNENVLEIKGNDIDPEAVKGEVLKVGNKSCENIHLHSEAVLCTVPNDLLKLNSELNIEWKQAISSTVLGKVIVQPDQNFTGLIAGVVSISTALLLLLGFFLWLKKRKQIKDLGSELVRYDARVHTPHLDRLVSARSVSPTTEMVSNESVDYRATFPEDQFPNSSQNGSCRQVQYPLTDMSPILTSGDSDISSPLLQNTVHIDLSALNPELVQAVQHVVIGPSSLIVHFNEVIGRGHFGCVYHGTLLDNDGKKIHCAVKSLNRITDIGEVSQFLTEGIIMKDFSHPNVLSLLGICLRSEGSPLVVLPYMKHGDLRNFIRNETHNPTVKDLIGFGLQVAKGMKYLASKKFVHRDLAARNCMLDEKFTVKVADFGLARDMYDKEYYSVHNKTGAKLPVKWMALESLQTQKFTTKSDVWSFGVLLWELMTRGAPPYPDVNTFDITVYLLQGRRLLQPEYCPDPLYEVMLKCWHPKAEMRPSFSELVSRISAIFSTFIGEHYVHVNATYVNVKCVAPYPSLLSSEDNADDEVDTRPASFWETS

[5] = molecular target: T1, Tyrosine-protein kinase receptor TYRO3 (Homo sapiens); assay: Inhibition of recombinant human Tyro3 kinase domain using poly (Glu, Ala, Tyr) as substrate at 0.5 uM after 1.5 hrs by ELISA relative to control
[6] = molecular target: Tyrosine-protein kinase ABL1 (Homo sapiens) (UniProt P00519); assay: Inhibition of non-phosphorylated form of Abl1 (unknown origin) at 75 uM relative to control
[7] = molecular target: T2, Tyrosine-protein kinase Mer (Homo sapiens) (UniProt Q12866); assay: Inhibition of Mer (unknown origin) at 75 uM relative to control
T2 sequence (whole entry): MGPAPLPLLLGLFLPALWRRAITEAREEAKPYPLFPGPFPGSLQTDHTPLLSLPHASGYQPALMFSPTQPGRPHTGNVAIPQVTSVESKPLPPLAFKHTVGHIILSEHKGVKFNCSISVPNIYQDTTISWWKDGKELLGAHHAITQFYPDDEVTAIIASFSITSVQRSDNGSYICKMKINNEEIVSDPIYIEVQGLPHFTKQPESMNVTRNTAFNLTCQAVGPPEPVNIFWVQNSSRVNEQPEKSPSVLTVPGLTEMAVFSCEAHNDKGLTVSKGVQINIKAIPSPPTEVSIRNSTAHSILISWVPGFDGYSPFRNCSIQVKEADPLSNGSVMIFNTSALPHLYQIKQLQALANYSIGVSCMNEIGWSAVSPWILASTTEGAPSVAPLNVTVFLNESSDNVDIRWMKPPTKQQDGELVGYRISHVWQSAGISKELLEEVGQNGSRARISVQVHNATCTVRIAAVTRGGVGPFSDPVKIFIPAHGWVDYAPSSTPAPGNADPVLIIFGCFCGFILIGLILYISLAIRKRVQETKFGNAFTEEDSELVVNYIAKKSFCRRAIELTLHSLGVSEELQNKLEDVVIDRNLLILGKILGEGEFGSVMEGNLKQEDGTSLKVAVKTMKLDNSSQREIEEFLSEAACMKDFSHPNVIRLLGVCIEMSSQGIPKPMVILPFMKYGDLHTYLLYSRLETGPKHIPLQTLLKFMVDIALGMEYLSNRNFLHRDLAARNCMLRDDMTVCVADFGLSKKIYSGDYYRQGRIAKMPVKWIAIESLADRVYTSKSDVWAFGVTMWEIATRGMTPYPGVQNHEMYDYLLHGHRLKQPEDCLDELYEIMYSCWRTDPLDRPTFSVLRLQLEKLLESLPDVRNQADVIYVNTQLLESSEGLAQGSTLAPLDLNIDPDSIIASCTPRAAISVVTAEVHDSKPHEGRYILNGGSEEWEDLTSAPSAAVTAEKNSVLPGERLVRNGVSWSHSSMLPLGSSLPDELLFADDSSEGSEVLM

[8] = molecular target: Tyrosine-protein kinase ABL1 (Homo sapiens) (UniProt P00519); assay: Inhibition of non-phosphorylated form of Abl1 (unknown origin) at 1 uM relative to control
[9] = molecular target: Tyrosine-protein kinase receptor UFO (Homo sapiens) (UniProt P30530); assay: Inhibition of Axl (unknown origin) at 0.5 uM relative to control
Tyrosine-protein kinase receptor UFO (Homo sapiens), sequence (P30530 whole entry): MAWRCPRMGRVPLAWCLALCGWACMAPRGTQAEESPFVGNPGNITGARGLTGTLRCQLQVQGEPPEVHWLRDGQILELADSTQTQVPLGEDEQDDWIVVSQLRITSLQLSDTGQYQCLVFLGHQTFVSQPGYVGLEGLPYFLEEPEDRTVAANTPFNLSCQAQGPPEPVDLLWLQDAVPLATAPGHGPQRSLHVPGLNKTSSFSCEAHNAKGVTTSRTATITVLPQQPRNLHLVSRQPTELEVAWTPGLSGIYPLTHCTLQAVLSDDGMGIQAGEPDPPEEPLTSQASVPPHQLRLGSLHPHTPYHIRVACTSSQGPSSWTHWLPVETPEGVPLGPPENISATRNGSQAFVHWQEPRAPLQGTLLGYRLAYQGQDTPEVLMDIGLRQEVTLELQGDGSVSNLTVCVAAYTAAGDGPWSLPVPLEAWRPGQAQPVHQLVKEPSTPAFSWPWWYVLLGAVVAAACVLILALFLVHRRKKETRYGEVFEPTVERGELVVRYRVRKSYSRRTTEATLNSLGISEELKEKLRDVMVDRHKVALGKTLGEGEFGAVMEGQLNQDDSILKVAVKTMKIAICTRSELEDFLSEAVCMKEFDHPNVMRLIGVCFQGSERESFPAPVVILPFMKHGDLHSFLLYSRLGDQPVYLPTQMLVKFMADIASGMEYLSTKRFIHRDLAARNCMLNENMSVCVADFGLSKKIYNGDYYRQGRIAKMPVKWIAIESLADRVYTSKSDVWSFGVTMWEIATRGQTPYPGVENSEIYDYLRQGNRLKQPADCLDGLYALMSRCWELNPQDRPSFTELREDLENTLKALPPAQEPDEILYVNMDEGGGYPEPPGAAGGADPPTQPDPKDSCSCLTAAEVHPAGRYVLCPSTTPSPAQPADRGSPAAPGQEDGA

[10] = molecular target: Tyrosine-protein kinase ABL1 (Homo sapiens) (UniProt P00519); assay: Inhibition of phosphorylated form of Abl1 (unknown origin) at 0.5 uM relative to control
[11] = molecular target: Fibroblast growth factor receptor 3 (Homo sapiens) (UniProt P22607); assay: Inhibition of FGFR3 (unknown origin) at 1 uM relative to control
Fibroblast growth factor receptor 3 (Homo sapiens), sequence (P22607 23-806 limits assumed): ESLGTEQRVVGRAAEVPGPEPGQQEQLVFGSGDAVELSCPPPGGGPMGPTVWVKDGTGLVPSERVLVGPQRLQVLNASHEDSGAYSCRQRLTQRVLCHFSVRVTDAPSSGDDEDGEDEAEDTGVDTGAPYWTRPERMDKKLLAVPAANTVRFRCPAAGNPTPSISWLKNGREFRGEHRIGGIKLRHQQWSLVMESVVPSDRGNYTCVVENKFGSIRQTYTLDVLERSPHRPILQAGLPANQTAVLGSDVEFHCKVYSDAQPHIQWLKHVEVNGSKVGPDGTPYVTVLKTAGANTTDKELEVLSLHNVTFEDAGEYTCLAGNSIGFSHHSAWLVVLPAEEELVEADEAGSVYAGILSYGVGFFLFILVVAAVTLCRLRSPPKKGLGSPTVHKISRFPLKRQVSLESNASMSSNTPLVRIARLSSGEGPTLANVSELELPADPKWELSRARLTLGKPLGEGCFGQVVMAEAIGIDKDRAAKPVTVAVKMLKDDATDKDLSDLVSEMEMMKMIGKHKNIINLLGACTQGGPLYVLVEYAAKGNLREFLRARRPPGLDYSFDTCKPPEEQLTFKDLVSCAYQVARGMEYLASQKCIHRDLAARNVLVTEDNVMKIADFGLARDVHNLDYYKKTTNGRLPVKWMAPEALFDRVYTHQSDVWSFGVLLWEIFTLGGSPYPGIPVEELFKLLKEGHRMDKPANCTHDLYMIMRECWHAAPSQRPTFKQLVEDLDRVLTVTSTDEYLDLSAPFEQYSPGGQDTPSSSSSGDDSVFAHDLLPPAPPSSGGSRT

[12] = molecular target: T2, Tyrosine-protein kinase Mer (Homo sapiens); assay: Inhibition of Mer (unknown origin) at 0.5 uM relative to control
[13] = molecular target: Tyrosine-protein kinase ABL1 (Homo sapiens) (UniProt P00519); assay: Inhibition of phosphorylated form of Abl1 (unknown origin) at 1 uM relative to control
[14] = molecular target: T2, Tyrosine-protein kinase Mer (Homo sapiens); assay: Inhibition of Mer (unknown origin) at 1 uM relative to control
[15] = molecular target: Tyrosine-protein kinase receptor UFO (Homo sapiens) (UniProt P30530); assay: Inhibition of Axl (unknown origin) at 1 uM relative to control
[16] = molecular target: Hepatocyte growth factor receptor (Homo sapiens) (UniProt P08581); assay: Inhibition of Met (unknown origin) at 1 uM relative to control
[17] = molecular target: T1, Tyrosine-protein kinase receptor TYRO3 (Homo sapiens); assay: Inhibition of recombinant human Tyro3 kinase domain using poly (Glu, Ala, Tyr) as substrate at 75 uM after 1.5 hrs by ELISA relative to control
[18] = molecular target: Fibroblast growth factor receptor 3 (Homo sapiens) (UniProt P22607); assay: Inhibition of FGFR3 (unknown origin) at 75 uM relative to control
[19] = molecular target: Tyrosine-protein kinase ABL1 (Homo sapiens) (UniProt P00519); assay: Inhibition of non-phosphorylated form of Abl1 (unknown origin) at 0.5 uM relative to control
[20] = molecular target: Hepatocyte growth factor receptor (Homo sapiens) (UniProt P08581); assay: Inhibition of Met (unknown origin) at 75 uM relative to control
[21] = molecular target: Tyrosine-protein kinase receptor UFO (Homo sapiens) (UniProt P30530); assay: Inhibition of Axl (unknown origin) at 75 uM relative to control
[22] = molecular target: Fibroblast growth factor receptor 3 (Homo sapiens) (UniProt P22607); assay: Inhibition of FGFR3 (unknown origin) at 0.5 uM relative to control

Row | Structure (SMILES) | inhibition [1] | inhibition [3] [%] | inhibition [5] [%] | inhibition [6] [%] | inhibition [8] [%] | inhibition [9] [%] | inhibition [11] [%] | inhibition [12] [%] | inhibition [13] [%] | inhibition [14] [%] | inhibition [15] [%] | inhibition [16] [%] | inhibition [18] [%] | inhibition [21] [%] | inhibition [22] [%] | other results
1 | COc1ccc(-n2cccc(C(=O)Nc3ccc(Oc4cc(N)ncn4)c(F)c3)c2=O)c(F)c1 | inactive | – | – | – | – | – | – | – | – | – | – | – | – | – | – | –
2 | Cc1cc(F)ccc1-n1cccc(C(=O)Nc2ccc(Oc3cc(N)ncn3)c(F)c2)c1=O | – | 65 | 48 | 98 | 27 | 93 | 0 | 53 | 0 | 65 | 98 | 100 | 6 | 100 | 0 | inhibition [2]: 47%; inhibition [4]: 99%; inhibition [7]: 99%; inhibition [10]: 0%; inhibition [17]: 100%; inhibition [19]: 10%; inhibition [20]: 99%
3 | O=C(Nc1ccc(Oc2cc(Cl)ncn2)c(F)c1)c1cccn(-c2ccc(F)cc2)c1=O | inactive | – | – | – | – | – | – | – | – | – | – | – | – | – | – | –
4 | Nc1nccc(Oc2ccc(NC(=O)c3cccn(-c4ccc(F)cc4)c3=O)cc2F)n1 | – | 75 | 61 | 32 | 50 | 96 | 0 | 94 | 0 | 95 | 100 | 100 | 12 | 100 | 0 | inhibition [2]: 30%; inhibition [4]: 99%; inhibition [10]: 0%; inhibition [19]: 27%; inhibition [20]: 99%
5 | Cc1cc(F)ccc1-n1cccc(C(=O)Nc2ccc(Oc3cc(On4nnc5ccccc54)ncn3)c(F)c2)c1=O | inactive | – | – | – | – | – | – | – | – | – | – | – | – | – | – | –
6 | O=C(Nc1ccc(Oc2cc(NCCN3CCOCC3)ncn2)c(F)c1)c1cccn(-c2ccc(F)cc2)c1=O | – | 63 | 50 | 71 | 12 | 95 | 0 | 90 | 0 | 93 | 99 | 99 | 0 | 100 | 0 | inhibition [2]: 13%; inhibition [4]: 98%; inhibition [7]: 49%; inhibition [10]: 1%; inhibition [17]: 75%; inhibition [19]: 12%; inhibition [20]: 99%
7 | COc1ccc(CNc2cc(Oc3ccc(NC(=O)c4cccn(-c5ccc(F)cc5)c4=O)cc3F)ncn2)cc1 | inactive | – | – | – | – | – | – | – | – | – | – | – | – | – | – | –
8 | CNc1cc(Oc2ccc(NC(=O)c3cccn(-c4ccc(F)cc4)c3=O)cc2F)ncn1 | inactive | – | – | – | – | – | – | – | – | – | – | – | – | – | – | –
9 | Nc1cc(Oc2ccc(NC(=O)c3cccn(-c4ccc(F)c(F)c4)c3=O)cc2F)ncn1 | inactive | – | – | – | – | – | – | – | – | – | – | – | – | – | – | –
10 | O=C(Nc1ccc(Oc2ncnc3[nH]cnc23)c(F)c1)c1cccn(-c2ccc(F)cc2)c1=O | – | 94 | 73 | 66 | 32 | 98 | 0 | 77 | 0 | 93 | 100 | 98 | 16 | 98 | 0 | inhibition [2]: 20%; inhibition [4]: 93%; inhibition [10]: 0%; inhibition [17]: 100%; inhibition [19]: 17%; inhibition [20]: 95%
11 | COc1ccc(-n2cccc(C(=O)Nc3ccc(Oc4cc(On5nnc6ccccc65)ncn4)c(F)c3)c2=O)c(F)c1 | inactive | – | – | – | – | – | – | – | – | – | – | – | – | – | – | –
12 | O=C(Nc1ccc(Oc2cc(On3nnc4ccccc43)ncn2)c(F)c1)c1cccn(-c2ccc(F)cc2F)c1=O | inactive | – | – | – | – | – | – | – | – | – | – | – | – | – | – | –
13 | Nc1cc(Oc2ccc(NC(=O)c3cccn(-c4ccc(F)cc4)c3=O)cc2F)ncn1 | – | 94 | 77 | 94 | 41 | 97 | 0 | 89 | 0 | 93 | 100 | 98 | 16 | 100 | 0 | inhibition [2]: 39%; inhibition [4]: 98%; inhibition [7]: 83%; inhibition [10]: 0%; inhibition [17]: 100%; inhibition [19]: 23%; inhibition [20]: 98%
14 | CCOc1ccn(-c2ccc(F)cc2)c(=O)c1C(=O)Nc1ccc(Oc2ccnc(N)c2Cl)c(F)c1 | – | 99 | 96 | 100 | 98 | 99 | 0 | 98 | 35 | 98 | 99 | 95 | 0 | 99 | 0 | inhibition [7]: 95%; inhibition [17]: 92%
15 | CNc1nccc(Oc2ccc(NC(=O)c3cccn(-c4ccc(F)cc4)c3=O)cc2F)n1 | inactive | – | – | – | – | – | – | – | – | – | – | – | – | – | – | –
16 | O=C(Nc1ccc(Oc2cc(On3nnc4ccccc43)ncn2)c(F)c1)c1cccn(-c2ccc(F)c(F)c2)c1=O | inactive | – | – | – | – | – | – | – | – | – | – | – | – | – | – | –
17 | COc1ccc(CNc2nccc(Oc3ccc(NC(=O)c4cccn(-c5ccc(F)cc5)c4=O)cc3F)n2)cc1 | inactive | – | – | – | – | – | – | – | – | – | – | – | – | – | – | –
18 | O=C(Nc1ccc(Oc2cc(On3nnc4ccccc43)ncn2)c(F)c1)c1cccn(-c2ccc(F)cc2)c1=O | inactive | – | – | – | – | – | – | – | – | – | – | – | – | – | – | –
